What was measured:
[1] = system: MMP1 expression by activated synovial fibroblasts (RASFs); test: MMP assay: MMP1 expression by RASFs triggered with TNF-α (MMP1 ELISA); assay type: cell-based; settings: TNF-α trigger 10 ng/mL, semi-quantitative score, read-out: REDUCTION MMP1/TNFa
In short: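 Primary RA synovial fibroblasts (passage 10–12, 3000 cells/well) were preincubated 90 min with compound in M199/1% FBS (0.2% DMSO), then triggered with TNF-α at 10 ng/mL final or 12.5% complex trigger for 48 h. MMP1 in supernatant was measured by sandwich chemiluminescent ELISA; untriggered and vehicle-triggered wells served as min/max controls.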

[2] = system: MMP1 expression by activated synovial fibroblasts (RASFs); test: MMP assay: MMP1 expression by RASFs triggered with 'complex trigger' (supernatant of TNF-α-treated THP-1 cells); assay type: cell-based; settings: 'complex trigger' 12.5%, MMP1 ELISA, semi-quantitative score, read-out: Reduction MMP1/THP1
Method: A 384-well format ELISA for measurement of MMP1 is developed. Various primary antibodies are tested, as well as various ELISA protocols. The following protocol is developed and validated to measure MMP1 levels in SF supernatant in 384 well plates: white Lumitrac 600 384 well plates (Greiner) are coated with 2 μg/mL anti-MMP1 antibody MAB1346 (Chemicon). The antibody is diluted in buffer 40 (1.21 g Tris base (Sigma), 0.58 g NaCl (Calbiochem) and 5 mL 10% NaN3 (Sigma) in 1 L milliQ water and adjusted to pH 8.5). After overnight incubation at 4° C., plates are washed with PBS (80 g NaCl, 2 g KCl (Sigma), 11.5 g Na2HPO4.7H2O and 2 g KH2PO4 in 10 L milliQ; pH 7.4) and blocked with 100 μL/well Casein buffer (2% Casein (VWR International) in PBS). Next day, casein buffer is removed from ELISA plates and replaced by 50 μL/well EC buffer (4 g casein, 2.13 g Na2HPO4 (Sigma), 2 g bovine albumin (Sigma), 0.69 g NaH2PO4.H2O (Sigma), 0.5 g CHAPS (Roche), 23.3 g NaCl, 4 mL 0.5 M EDTA pH 8 (Invitrogen), 5 mL 10% NaN3 in 1 L milliQ and adjusted to pH 7.0). 0.25 mM DTT (Sigma) is added to the thawed sample plates. After removal of the EC buffer, 20 μL of sample is transferred to the ELISA plates. After overnight incubation at 4° C. plates are washed twice with PBS and once with PBST (PBS with 0.05% Tween-20 (Sigma)) and incubated with 35 μL/well biotinylated anti-MMP1 antibody solution (R&D). This secondary antibody is diluted in buffer C (0.82 g NaH2PO4.H2O, 4.82 g Na2HPO4, 46.6 g NaCl, 20 g bovine albumin and 4 mL 0.5M EDTA pH 8 in 2 L milliQ and adjusted to pH 7.0) at a concentration of 5 μg/mL. After 2 h of incubation at RT, plates are washed as described above and incubated with 50 μL/well streptavidin-HRP conjugate (Biosource). Streptavidin-HRP conjugate is diluted in buffer C at a concentration of 0.25 μg/mL. After 45 min, plates are washed as described above and incubated for 5 min with 50 μL/well BM Chem ELISA Substrate (Roche). Readout is performed on the Luminoscan Ascent Luminometer (Labsystems) with an integration time of 200 msec or with an Envision reader (Perkin Elmer).
The increase of MMP1 expression by SFs upon treatment with cytokines relevant in the field of RA (TNF-α, IL1β and OSM) or a combination thereof is shown in FIG. 2 as white bars. For this experiment, SFs are seeded in 96 well plates, 3,000 cells/well. 24 h later, the medium is changed to M199 medium supplemented with 1% FBS. One day after the medium change, cytokines or combinations thereof are added to the cultures, each cytokine being added to a final concentration of 25 ng/mL. 72 h after cytokine addition, the supernatant is collected and processed in the MMP1 ELISA as described in the protocol given above. In parallel with this experiment, SFs are triggered, using the same protocol, with the supernatant of THP1 cells (2-fold diluted in M199+1% FBS) treated with the same cytokines or combinations of cytokines for 48 h in M199 medium+1% FBS. The induction of the MMP1 expression by SFs triggered with the supernatants of TNF-α-treated THP1 cells is stronger (>4.5 fold induction) as compared to the SFs triggered with recombinant TNF-α alone (3-fold induction) and almost equals the 5-fold induction obtained by a mixture of 3 purified cytokines (TNF-α, IL1βb, OSM). […] As the role of TNF-α in the RA pathogenesis is validated (TNF-α-blockers as Infliximab and Ethanercept show some efficacy in the treatment of RA patients) and the THP-1 cells are representative for monocytes/macrophages present in the joint of RA patients, the TNF-α-based trigger mixture prepared by contacting THP-1 cells with TNF-α will contain factors present in the joints of RA patients and subsequently is relevant to RA. This TNF-α-based complex trigger, further referred to as the ‘complex trigger’, will further be used as basis for the ‘MMP assay’. For preparing a stock of this ‘complex trigger’, THP-1 cells are used between passage 8 and 16. […]

NC(=O)c1ccc(-c2ccc(Nc3ccc(N4CCOCC4)cc3)c3ncnn23)cc1 [Example 1, 4-[8-(4-Morpholin-4-yl-phenylamino)-[1,2,4]triazolo[1,5-a]pyridin-5-yl]-benzamide]
IC50 ([1]; Fibroblast, 48 h): 501 to 1000 nM | IC50 ([2]; Homo sapiens, THP-1, 48 h): > 10000 nM

CN1CCN(c2ccc(Nc3ccc(-c4cn[nH]c4)n4ncnc34)cc2)CC1 [Example 2, [4-(4-Methyl-piperazin-1-yl)-phenyl]-[5-(1H-pyrazol-4-yl)-[1,2,4]triazolo[1,5-a]pyridin-8-yl]-amine]
IC50 ([1]; Fibroblast, 48 h): 501 to 1000 nM | IC50 ([2]; Homo sapiens, THP-1, 48 h): 5000 to 10000 nM

O=C(NCc1cccnc1)c1ccc(Nc2ccc(-c3cn[nH]c3)n3ncnc23)cc1 [Example 3, 4-[5-(1H-Pyrazol-4-yl)-[1,2,4]triazolo[1,5-a]pyridin-8-ylamino]-N-pyridin-3-ylmethyl-benzamide]
IC50 ([1]; 48 hrs): 501 to 1000 nM | IC50 ([2]; 48 hrs): 1000 to 5000 nM

CN1CCN(c2ccc(Nc3ccc(-c4cc[nH]c(=O)c4)n4ncnc34)cc2)CC1 [Example 4, 4-{8-[4-(4-Methyl-piperazin-1-yl)-phenylamino]-[1,2,4]triazolo[1,5-a]pyridin-5-yl}-1H-pyridin-2-one]
IC50 ([1]; 48 hrs): 501 to 1000 nM | IC50 ([2]; 48 hrs): 1000 to 5000 nM

O=C(NCc1cccnc1)c1ccc(Nc2ccc(-c3cc[nH]c(=O)c3)n3ncnc23)cc1 [Example 5, 4-[5-(2-oxo-1,2-dihydro-pyridin-4-yl)-[1,2,4]triazolo[1,5-a]pyridin-8-ylamino]-N-pyridin-3-ylmethyl-benzamide]
IC50 ([1]; 48 hrs): 501 to 1000 nM | IC50 ([2]; 48 hrs): > 10000 nM

c1nc2c(Nc3ccc(N4CCOCC4)cc3)ccc(-c3cn[nH]c3)n2n1 [Example 7, (4-Morpholin-4-yl-phenyl)-[5-(1H-pyrazol-4-yl)-[1,2,4]triazolo[1,5-a]pyridin-8-yl]-amine]
IC50 ([1]; Fibroblast, 48 h): 501 to 1000 nM | IC50 ([2]; Homo sapiens, THP-1, 48 h): 5000 to 10000 nM

Cc1[nH]ncc1-c1ccc(Nc2ccc(N3CCOCC3)cc2)c2ncnn12 [Example 8, [5-(5-Methyl-1H-pyrazol-4-yl)-[1,2,4]triazolo[1,5-a]pyridin-8-yl]-(4-morpholin-4-yl-phenyl)-amine]
IC50 ([1]; 48 hrs): 1000 to 5000 nM | IC50 ([2]; 48 hrs): 5000 to 10000 nM

CN1CCN(c2ccc(Nc3ccc(-c4cn[nH]c4)n4ncnc34)cc2)CC1 [Example 36, N-[4-(4-methylpiperazin-1-yl)phenyl]-5-(1H-pyrazol-4-yl)[1,2,4]triazolo[1,5-a]pyridin-8-amine]
IC50 ([1]; 48 hrs): 1000 to 5000 nM | IC50 ([2]; 48 hrs): > 10000 nM

O=C(NCc1cccnc1)c1ccc(Nc2ccc(-c3cn[nH]c3)n3ncnc23)cc1 [Example 37, 4-{[5-(1H-pyrazol-4-yl)[1,2,4]triazolo[1,5-a]pyridin-8-yl]amino}-N-(pyridin-3-ylmethyl)benzamide]
IC50 ([1]; Fibroblast, 48 h): < 500 nM | IC50 ([2]; Homo sapiens, THP-1, 48 h): 1000 to 5000 nM

Cc1[nH]ncc1-c1ccc(Nc2ccc(N3CCOCC3)cc2)c2ncnn12 [Example 39, 5-(5-methyl-1H-pyrazol-4-yl)-N-(4-morpholin-4-ylphenyl)[1,2,4]triazolo[1,5-a]pyridin-8-amine]
IC50 ([1]; 48 hrs): 5000 to 10000 nM | IC50 ([2]; Homo sapiens, THP-1, 48 h): > 10000 nM

CN1CCN(c2ccc(Nc3ccc(-c4cc[nH]c(=O)c4)n4ncnc34)cc2)CC1 [Example 40, 4-(8-{[4-(4-methylpiperazin-1-yl)phenyl]amino}[1,2,4]triazolo[1,5-a]pyridin-5-yl)pyridin-2(1H)-one]
IC50 ([1]; Fibroblast, 48 h): 1000 to 5000 nM | IC50 ([2]; Homo sapiens, THP-1, 48 h): 1000 to 5000 nM

O=C(NCc1cccnc1)c1ccc(Nc2ccc(-c3cc[nH]c(=O)c3)n3ncnc23)cc1 [Example 41, 4-{[5-(2-oxo-1,2-dihydropyridin-4-yl)[1,2,4]triazolo[1,5-a]pyridin-8-yl]amino}-N-(pyridin-3-ylmethyl)benzamide]
IC50 ([1]; Fibroblast, 48 h): 1000 to 5000 nM | IC50 ([2]; Homo sapiens, THP-1, 48 h): > 10000 nM

CN1CCN(c2ccc(Nc3ccc(-c4ccc(C(N)=O)c(F)c4)n4ncnc34)cc2)CC1 [Example 42, 2-fluoro-4-(8-{[4-(4-methylpiperazin-1-yl)phenyl]amino}[1,2,4]triazolo[1,5-a]pyridin-5-yl)benzamide]
IC50 ([1]; Fibroblast, 48 h): 501 to 1000 nM | IC50 ([2]; Homo sapiens, THP-1, 48 h): > 10000 nM
